{
  "source": "paper PMC9241669",
  "about": "“Allantodapsone is a Pan-Inhibitor of Staphylococcus aureus Adhesion to Fibrinogen, Loricrin, and Cytokeratin 10” (Microbiology Spectrum, 2022)",
  "key": {"recombinant ClfB N2N3": {"target": "recombinant ClfB N2N3 (Staphylococcus aureus, UniProt O86476)", "sequence (O86476 201-542)": "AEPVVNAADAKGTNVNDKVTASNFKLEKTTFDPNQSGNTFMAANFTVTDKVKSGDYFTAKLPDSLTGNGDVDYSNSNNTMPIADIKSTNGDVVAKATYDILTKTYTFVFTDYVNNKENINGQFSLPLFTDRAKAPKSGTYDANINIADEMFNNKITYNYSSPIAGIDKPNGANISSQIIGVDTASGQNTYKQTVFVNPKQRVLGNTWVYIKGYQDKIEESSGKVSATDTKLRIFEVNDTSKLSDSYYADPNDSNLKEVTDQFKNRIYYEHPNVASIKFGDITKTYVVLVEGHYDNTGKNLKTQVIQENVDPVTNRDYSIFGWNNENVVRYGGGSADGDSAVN", "experiment": "ELISA of recombinant ClfB N2N3 binding to immobilized GST-L2v loricrin", "parameters": "species or system S. aureus", "details": "allantodapsone 100 μM; ClfB 5 μM; P < 0.0001", "protocol": "FIG 4 Allantodapsone inhibits S. aureus adhesion to loricrin and cytokeratin 10. Dose-response curve for adhesion of S. aureus Newman to GST-L2v loricrin (A) and CK10 (C). (B) Inhibition of recombinant ClfB N2N3 binding to immobilized GST-L2v loricrin by allantodapsone. (D) Inhibition of S. aureus Newman adhesion to GST-L2v loricrin by allantodapsone derivatives. Purified GST-L2v or CK10 were used to coat plates at 4°C overnight. Wells were washed with PBS and blocked with 1% BSA. Washed bacteria (OD600 of 1) were mixed with allantodapsone or vehicle control before being added to the wells and incubated for 2 h at 37°C. Adherent cells were washed, fixed, and stained with crystal violet, and wells further washed. The dye was dissolved in acetic acid, and the absorbance measured at 570 nm. GST-L2v was used at 20 μM in A and D. CK10 was used at 10 nM. […] Bound ClfB was detected using peroxidase-conjugated anti-His monoclonal antibody in an ELISA. […]\nRecombinant GST-tagged L2v loricrin (120 nM) was coated onto a microtiter plate (Nunc Maxisorb) in sodium carbonate buffer (15 mM Na2CO3, 35 mM NaHCO3, pH 9.6) for 16 h at 4°C. […] Bound ClfB was detected with peroxidase-conjugated anti-His monoclonal antibody in 1% (wt/vol) skimmed milk proteins in PBS. […] The reaction was stopped by the addition of 2 M H2S0_4 (50 μL/well), and the A450 was measured in a plate reader (Labsystems)."}, "U-937 cells": {"test_system": "U-937 cells", "format": "cell-based, human", "details": "100 μM, undifferentiated U-937 monocyte cells, n=2, preliminary", "protocol": "V. Microbiology: Materials and Methods\nThe MTT toxicity assay (1) (Vybrant MTT Cell Proliferation Assay, Molecular Probes, Or, USA) was used to measure cytotoxicity. Myeloid lineage, U-937 cells (2) were grown in RPMI-1640 (Gibco) culture medium supplemented with 10% foetal calf serum, 1% L-glutamine and 1% Penicillin/Streptomycin (Gibco). U-937 cells were centrifuged and cells diluted with fresh medium containing 1.2 mM MTT solution to a concentration of (5-6 x 10^6 per mL) and incubated at 37 °C for 2 h. Cells were centrifuged and the pellet dissolved in DMSO. The absorbance was read at 490 nm using the Wallac Victor2, (Shelton, Connecticut, USA).\nPlatelet aggregation was performed in platelet rich plasma according to O’Brien et al.\nS. aureus Newman (stationary phase) was washed and diluted to an OD600 of 2.5.\nThis was mixed with 10 mg/mL of fibrinogen in 1:1 ratio resulting in a final concentration 5 mg/mL fibrinogen. Fibrinogen -bacteria aggregates clump and settle at the bottom of the tube resulting in a clear solution. These were compared to the turbid bacterial suspension in buffer by visual inspection. […]\nwas tested for toxicity using the MTT assay (VybrantTM MTT Cell Proliferation Assay, Molecular Probes, OR, USA). 10% DMSO is used as a positive control in this assay.\nAllantodapsone was incubated with undifferentiated U-937 monocyte cells at 100\nµM. […]"}, "S. aureus SH1000": {"test_system": "S. aureus SH1000", "experiment": "Adhesion of S. aureus SH1000 to fibronectin", "format": "cell-based, Staphylococcus aureus", "details": "fibronectin 20 μg/mL, Fig. S2", "protocol": "Adhesion assays were carried out according to Hartford et al. ([37]). Briefly, plates were coated with 10 μg/mL fibrinogen (Calbiochem, Darmstadt, Germany) or 20 μg/mL fibronectin (Sigma-Aldrich, Ireland) for 2 h at 37°C or for 16 h at 4°C. Plates were blocked with 1% BSA at 37°C for 1 h and washed 3 times in PBS. Washed bacteria were incubated at 37°C for 2 h. Adherent bacteria were washed three times in PBS and fixed in 5–9% formaldehyde at room temperature for 30 min. Wells were washed three times in PBS and stained using 5% crystal violet for 20 min. Wells were washed three times in PBS, and the crystal violet solubilized using 5% acetic acid. Plates were read at 570 nm on a Wallac Victor2, (Shelton, CT, USA). The minimum adhesion inhibitory concentration (MAIC) was determined as the concentration inhibiting greater than 90% bacterial adhesion. […]\nfibronectin. Fibronectin was used to coat plates at 4 °C overnight at 20 μg/mL.\nWells were washed with PBS and blocked with 1% BSA. Washed bacteria (OD600 of 1) were added with the relevant concentration of allantodapsone or vehicle control, and incubated for 2 hours at 37 °C. Adherent cells were washed, fixed, stained with crystal violet and wells further washed. The dye was dissolved in acetic acid and the absorbance measured at 570 nm. […]"}},
  "note": "Where two headings read alike, the source gives them in different places.",
  "data": [
    {"smiles": "Nc1ccc(S(=O)(=O)c2ccc(NCN3C(=O)NC(=O)C(=O)C3=O)cc2)cc1", "note": "[Allantodapsone]", "values": [
      {"measurement": "inhibition of recombinant ClfB binding to L2v loricrin", "setting": "recombinant ClfB N2N3", "result": "inhibited"},
      {"measurement": "toxic effect on human cells, MTT (words)", "setting": "U-937 cells", "result": "no toxic effect"},
      {"measurement": "toxic effect on human cells, MTT (words)", "setting": "U-937 cells; listed as allantodapsone", "result": "no toxic effects"},
      {"measurement": "inhibition of adhesion to fibronectin (words)", "setting": "S. aureus SH1000", "result": "does not inhibit"},
      {"measurement": "inhibition of adhesion to fibronectin (words)", "setting": "S. aureus SH1000; listed as allantodapsone", "result": "did not inhibit"}
    ]}
  ]
}
